The NIST ThermoML archive (doi:10.1021/je0496995)

Test: mn = molality of the nth substance listed, in mol/kg
Conditions: Liquid; for viscosity: 101.3 kPa, Capillary tube (Ostwald / Ubbelohde) method; for mass density: 101.33 kPa, Pycnometric method

O=C(O)c1cccnc1 [3-carboxylpyridine] + Cc1cccnc1
Conditions | mass density [kg/m3] | viscosity [mPa·s]
293.15 K, m1 = 0.02469 | 956.7 | 0.9504
293.15 K, m1 = 0.107 | 959.5 | 0.9659
293.15 K, m1 = 0.2134 | 964.1 | 0.9908
293.15 K, m1 = 0.319 | 969.5 | 1.015
293.15 K, m1 = 0.424 | 975.8 | 1.05
293.15 K, m1 = 0.5284 | 983 | 1.107
303.15 K, m1 = 0.02469 | 947.3 | 0.8363
303.15 K, m1 = 0.107 | 950.1 | 0.8514
303.15 K, m1 = 0.2134 | 954.6 | 0.8764
303.15 K, m1 = 0.319 | 960 | 0.9018
303.15 K, m1 = 0.424 | 966.4 | 0.9368
303.15 K, m1 = 0.5284 | 973.5 | 0.9891
313.15 K, m1 = 0.02469 | 938.4 | 0.7399
313.15 K, m1 = 0.107 | 941.2 | 0.7553
313.15 K, m1 = 0.2134 | 945.7 | 0.7804
313.15 K, m1 = 0.319 | 951 | 0.8048
313.15 K, m1 = 0.424 | 957.5 | 0.8396
313.15 K, m1 = 0.5284 | 964.7 | 0.8961
323.15 K, m1 = 0.02469 | 929 | 0.661
323.15 K, m1 = 0.107 | 931.8 | 0.6762
323.15 K, m1 = 0.2134 | 936.3 | 0.7014
323.15 K, m1 = 0.319 | 941.5 | 0.7265
323.15 K, m1 = 0.424 | 947.8 | 0.7613
323.15 K, m1 = 0.5284 | 955.2 | 0.8173
333.15 K, m1 = 0.02469 | 920 | 0.5981
333.15 K, m1 = 0.107 | 922.8 | 0.6134
333.15 K, m1 = 0.2134 | 927.2 | 0.6381
333.15 K, m1 = 0.319 | 932.5 | 0.6632
333.15 K, m1 = 0.424 | 938.7 | 0.6983
333.15 K, m1 = 0.5284 | 946.2 | 0.7541
343.15 K, m1 = 0.02469 | 911 | 0.5434
343.15 K, m1 = 0.107 | 913.8 | 0.5594
343.15 K, m1 = 0.2134 | 918.2 | 0.5833
343.15 K, m1 = 0.319 | 923.5 | 0.6086
343.15 K, m1 = 0.424 | 929.7 | 0.6431
343.15 K, m1 = 0.5284 | 937.2 | 0.6997
